# Results taken from patent US11840521B2, “Modulators of Mas-related G-protein receptor X4 and related products and methods” (Escient Pharmaceuticals, Inc., priority 2019, dated 2023).
# Target: MRGPRX4 (Homo sapiens, UniProt Q96LA9)
# Test: MRGPR X4 antagonist activity, IP-One Gq HTRF assay in stably transfected HEK cells (versus agonist bilirubin, deoxycholic acid, conjugated bilirubin, urobilin, obeticholic acid or BAR502)
# Format: cell-based
# Parameters: expressed in transfected cells; host or cells: HEK cells, stably transfected
# Details: versus 10 μM Bilirubin agonist; HEK cells expressing human MRGPR X4; read-out: MRGPR4 Antagonist Activity
# Procedure, shortened: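 Stably transfected HEK cells expressing human MRGPR X4, seeded overnight, given compounds as 10-point 1:3 curves from 10 uM final top, incubated 1 h at 37° C then 30 min at room temperature. IP-1 measured by IP-One Gq HTRF. IC50 derived from the HTRF ratio.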
# Sequence of MRGPRX4 (Q96LA9 whole entry): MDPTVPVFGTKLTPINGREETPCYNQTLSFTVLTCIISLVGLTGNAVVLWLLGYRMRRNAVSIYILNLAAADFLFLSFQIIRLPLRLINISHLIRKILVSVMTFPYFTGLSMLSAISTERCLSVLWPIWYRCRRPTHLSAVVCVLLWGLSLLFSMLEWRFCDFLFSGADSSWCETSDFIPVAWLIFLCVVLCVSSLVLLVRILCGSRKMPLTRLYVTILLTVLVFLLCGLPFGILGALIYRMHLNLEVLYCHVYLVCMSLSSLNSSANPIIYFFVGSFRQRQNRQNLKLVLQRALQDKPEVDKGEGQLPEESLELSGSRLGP
row,SMILES,IC50
1,O=C(O)c1cc(Cl)cc(COc2ccc(C(F)(F)F)cc2Cl)c1 [Compound 1-82],< 100 nM
2,COC(=O)c1cccc(COc2ccc(C(F)(F)F)cc2Cl)c1F [Compound 1-117],500 to 1000 nM
3,O=C(O)c1cccc(COc2cccc(C(F)(F)F)c2)c1 [Compound 1-140],1000 to 2500 nM
4,O=C(O)c1cccc(COc2ccc(C3CC3)cc2)c1 [Compound 1-46],1000 to 2500 nM
5,Cc1cc(OCc2cccc(C(=O)O)c2)ccc1Cl [Compound 1-72],500 to 1000 nM
6,O=C(O)c1cccc(COc2ccccc2F)c1 [Compound 1-40],1000 to 2500 nM
7,O=C(O)c1cccc(COc2cccc3c2CCCC3=O)c1 [Compound 1-87],1000 to 2500 nM
8,COC(=O)c1cc(COc2ccc(Cl)cc2Cl)on1 [Compound 1-15],1000 to 2500 nM
9,COc1ccccc1OCc1cccc(C(=O)O)c1 [Compound 1-37],100 to 500 nM
10,O=C(O)c1ccc(COc2ccc(Cl)cc2Cl)s1 [Compound 1-43],500 to 1000 nM
11,O=C(O)c1cccc(COc2cccc3ccccc23)c1 [Compound 1-49],500 to 1000 nM
12,COC(=O)c1cccc(COc2ccc(Cl)cc2C(F)(F)F)n1 [Compound 1-10],500 to 1000 nM
13,Cc1ccc(C(C)(C)C)c(OCc2cccc(C(=O)O)c2)c1 [Compound 1-88],1000 to 2500 nM
14,COC(=O)c1cccc(COc2ccc(Cl)cc2Cl)c1 [Compound 1-4],> 2500 nM
15,O=C(O)c1cccc(COc2ccc3c(c2)CCC3)c1 [Compound 1-42],1000 to 2500 nM
16,COc1cc(OCc2cccc(C(=O)O)c2)ccc1C(F)(F)F [Compound 1-67],500 to 1000 nM
17,O=C(O)c1cncc(COc2ccc(Cl)cc2Cl)n1 [Compound 1-116],500 to 1000 nM
18,O=C(O)c1cccc(COc2ccc(-c3ccccc3)cc2)c1 [Compound 1-81],> 2500 nM

row,SMILES,IC50
1,Cc1cc(C(C)(C)C)ccc1OCc1cccc(C(=O)O)c1 [Compound 1-108],1000 to 2500 nM
2,O=C(O)c1cccc(COc2ccc(Cl)cc2)c1 [Compound 1-21],100 to 500 nM
3,O=C(O)c1cccc(COc2ccc(C(F)(F)F)cc2F)c1 [Compound 1-64],< 100 nM
4,Cc1cc(Cl)cc(Cl)c1OCc1cccc(C(=O)O)c1 [Compound 1-50],1000 to 2500 nM
5,Cc1cc(OCc2cccc(C(=O)O)c2)ccc1C(F)(F)F [Compound 1-138],> 2500 nM
6,O=C(O)c1cccc(COc2cccc(-c3ccc(F)cc3)c2)c1 [Compound 1-69],500 to 1000 nM
7,N#Cc1c(Cl)cccc1OCc1cccc(C(=O)O)c1 [Compound 1-76],100 to 500 nM
8,O=C(O)c1cccc(COc2ccc(Cl)cc2)n1 [Compound 1-36],500 to 1000 nM
9,O=C(O)c1cccc(COc2ccc3ccccc3c2)c1F [Compound 1-58],< 100 nM
10,Cc1ccc(OCc2cccc(C(=O)O)c2)c(Cl)c1Cl [Compound 1-143],< 100 nM
11,O=C(O)c1cccc(COc2ccc3c(c2)C(=O)CCC3)c1 [Compound 1-151],> 2500 nM
12,Cc1cc(Cl)ccc1OCc1cccc(C(=O)O)c1F [Compound 1-63],< 100 nM
13,O=C(O)c1cccc(COc2ccc3ccccc3c2)c1 [Compound 1-17],100 to 500 nM
14,Cc1cc(OCc2cccc(C(=O)O)c2)cc(C)c1Cl [Compound 1-53],500 to 1000 nM
15,COC(=O)c1cccc(COc2ccc(Cl)cc2C(F)(F)F)c1 [Compound 1-1],1000 to 2500 nM
16,O=C(O)c1cccc(COc2ccc(Cl)cc2F)c1 [Compound 1-23],500 to 1000 nM
17,O=C(O)c1cccc(COc2ccc3ccsc3c2)c1 [Compound 1-97],100 to 500 nM

# Other lines, results leading:
row,IC50,SMILES
1,> 2500 nM,"NC(=O)c1cccc(COc2cccc(Cl)c2Cl)c1 [Compound 13-1, 3-((2,3-dichlorophenoxy)methyl)benzamide]"
2,500 to 1000 nM,"FC(F)(F)c1ccc(OCc2cccc(-c3nc[nH]n3)c2)c(Cl)c1 [Compound 45-2, 3-(3-((2-chloro-4-(trifluoromethyl)phenoxy)methyl)phenyl)-1H-1,2,4-triazole]"
3,100 to 500 nM,O=C(O)c1cccc(COc2ccc(C(F)F)cc2F)c1 [Compound 33-4]
4,1000 to 2500 nM,O=C(O)c1cccc(COc2cc(Cl)cc(Cl)c2)c1 [Compound 3-9]
5,> 2500 nM,"O=C(O)Cc1cccc(COc2ccc(Cl)cc2Cl)c1 [Compound 64-1, 2-(3-((2,4-dichlorophenoxy)methyl)phenyl)acetic acid]"
6,500 to 1000 nM,CN(C)CCNC(=O)c1cccc(COc2ccc(C(F)(F)F)cc2Cl)c1 [Compound 52-17]
7,< 100 nM,Cc1cc(C(F)(F)F)ccc1OCc1cc(F)cc(C(=O)O)c1 [Compound 9-2]
8,100 to 500 nM,"NC(=O)c1cccc(COc2ccc(C(F)(F)F)cc2Cl)c1 [Compound 45-1, 3-((2-chloro-4-(trifluoromethyl)phenoxy)methyl)benzamide]"
9,500 to 1000 nM,O=C(N[C@H]1CC[C@H](O)CC1)c1cccc(COc2ccc(C(F)(F)F)cc2Cl)c1 [Compound 52-15]
10,500 to 1000 nM,Cc1cc(N2CCCC2)ccc1OCc1cccc(C(=O)O)c1F [Compound 4-23]
11,< 100 nM,"O=C(O)c1cc(COc2ccc(C(F)(F)F)cc2Cl)cc(C2CC2)c1 [Compound 11-1, 3-((2-chloro-4-(trifluoromethyl)phenoxy)methyl)-5-cyclopropylbenzoic acid]"
12,100 to 500 nM,CC(C)(NC(=O)c1cccc(COc2ccc(C(F)(F)F)cc2Cl)c1)C(=O)O [Compound 54-3]
13,< 100 nM,COc1cc(COc2ccc(C(F)(F)F)cc2Cl)cc(C(=O)O)c1 [Compound 2-2]
14,< 100 nM,O=C(O)c1cccc(COc2ccc(OC(F)(F)F)cc2Cl)c1F [Compound 4-13]
15,100 to 500 nM,"N#Cc1cc(CCc2ccc(C(F)(F)F)cc2Cl)cc(C(=O)O)c1 [Compound 61-1, 3-(2-chloro-4-(trifluoromethyl)phenethyl)-5-cyanobenzoic acid]"
16,< 100 nM,Cc1cc(COc2ccc(Cl)cc2Cl)cc(C(=O)O)c1 [Compound 4-7]
17,100 to 500 nM,O=C(N[C@@H](Cc1ccc(O)cc1)C(=O)O)c1cccc(COc2ccc(C(F)(F)F)cc2Cl)c1 [Compound 54-7]
18,< 100 nM,O=C(O)c1cc(Br)cc(COc2ccc(C(F)(F)F)cc2Cl)c1 [Compound 2-3]
19,< 100 nM,"O=C(O)c1cc(Br)cc(COc2ccc(C(F)(F)F)cc2Cl)n1 [Compound 9-1, 4-bromo-6-((2-chloro-4-(trifluoromethyl)phenoxy)methyl)picolinic acid]"
20,100 to 500 nM,O=C(O)c1cc(COc2ccc(C(F)(F)F)cc2Cl)cc(C(F)(F)F)c1 [Compound 4-20]
21,< 100 nM,"Cc1cc(COc2ccc3ccccc3c2)nc(C(=O)O)c1 [Compound 41-1, 4-methyl-6-((naphthalen-2-yloxy)methyl)picolinic acid]"
22,100 to 500 nM,"NCc1cccc(COc2ccc(Cl)cc2Cl)c1 [Compound 7-1, (3-((2,4-dichlorophenoxy)methyl)phenyl)methanamine]"

row,IC50,SMILES
1,500 to 1000 nM,O=C(N[C@@H](Cc1c[nH]cn1)C(=O)O)c1cccc(COc2ccc(C(F)(F)F)cc2Cl)c1 [Compound 55-2]
2,100 to 500 nM,CS(=O)(=O)NC(=O)c1cccc(COc2ccc(C(F)(F)F)cc2Cl)c1 [Compound 52-20]
3,< 100 nM,O=C(O)c1cc(C2CC2)cc(COc2ccc(C(F)(F)F)cc2Cl)n1 [Compound 8-3]
4,100 to 500 nM,"O=C(NCc1ccccc1)c1cccc(COc2ccc(C(F)(F)F)cc2Cl)c1 [Compound 52-1, N-benzyl-3-((2-chloro-4-(trifluoromethyl)phenoxy)methyl)benzamide]"
5,500 to 1000 nM,"O=C(O)c1cccc(COc2ccc(C(F)(F)F)cc2C2CC2)c1 [Compound 34-1, 3-((2-cyclopropyl-4-(trifluoromethyl)phenoxy)methyl)benzoic acid]"
6,1000 to 2500 nM,O=C(O)c1cccc(COCc2ccc(Cl)cc2Cl)c1 [Compound 3-8]
7,100 to 500 nM,NC(=O)CC[C@H](NC(=O)c1cccc(COc2ccc(C(F)(F)F)cc2Cl)c1)C(=O)O [Compound 55-3]
8,500 to 1000 nM,O=C(c1cccc(COc2ccc(C(F)(F)F)cc2Cl)c1)N1CCCC(O)C1 (stereo not drawn) [Compound 52-21]
9,100 to 500 nM,"CN(C)c1cc(COc2ccc(C(F)(F)F)cc2Cl)cc(C(=O)O)c1 [Compound 38-1, 3-((2-chloro-4-(trifluoromethyl)phenoxy)methyl)-5-(dimethylamino)benzoic acid]"
10,< 100 nM,Cc1cc(COc2ccc(Cl)c(Cl)c2Cl)nc(C(=O)O)c1 [Compound 2-4]
11,< 100 nM,O=C(O)c1nc(COc2ccc(C(F)(F)F)cc2Cl)ccc1F [Compound 4-18]
12,< 100 nM,CCOC(=O)c1cccc(COc2ccc(C(F)(F)F)cc2Cl)n1 [Compound 56-2]
13,100 to 500 nM,CCCCNC(=O)c1cccc(COc2ccc(C(F)(F)F)cc2Cl)c1 [Compound 52-7]
14,> 2500 nM,"Cc1noc(-c2cccc(COc3ccc(C(F)(F)F)cc3Cl)c2)n1 [Compound 49-1, 5-(3-((2-chloro-4-(trifluoromethyl)phenoxy)methyl)phenyl)-3-methyl-1,2,4-oxadiazole]"
15,100 to 500 nM,"O=C(O)c1cccc(COc2ncc(C(F)(F)F)cc2Cl)c1 [Compound 35-1, 3-(((3-chloro-5-(trifluoromethyl)pyridin-2-yl)oxy)methyl)benzoic acid]"
16,< 100 nM,FC(F)(F)Oc1ccc(OCc2cccc(-c3nnn[nH]3)c2)cc1Cl [Compound 17-10]
17,< 100 nM,Cc1cc(COc2ccc(C(F)(F)F)c(Cl)c2)cc(C(=O)O)c1 [Compound 4-17]
18,1000 to 2500 nM,"COc1c(COc2ccc(Cl)cc2Cl)cccc1C(=O)O [Compound 6-1, 3-((2,4-dichlorophenoxy)methyl)-2-methoxybenzoic acid]"
19,1000 to 2500 nM,"O=C(O)c1cccc(COc2ccc(C(F)(F)F)cn2)c1 [Compound 10-1, 3-(((5-(trifluoromethyl)pyridin-2-yl)oxy)methyl)benzoic acid]"
20,500 to 1000 nM,COCCNC(=O)c1cccc(COc2ccc(C(F)(F)F)cc2Cl)c1 [Compound 52-9]
21,100 to 500 nM,O=C(NCS(=O)(=O)O)c1ccc(COc2ccc(C(F)(F)F)cc2Cl)cc1 [Compound 52-3]
